Where “and” joins values, the source holds several entries; their conditions need not be identical. Identical values can stand only once. Like-named read-outs stand apart in the source and are kept apart here.
How the values were obtained:
[1] = system: Ehrlich ascites carcinoma; assay: Ehrlich ascites carcinoma in white mice, body weight dynamics
[2] = system: solid Ehrlich carcinoma; assay: Solid Ehrlich carcinoma in white mice, tumor size dynamics; conditions: Cisplatin 5 mg/kg once
[3] = system: ascites Ehrlich carcinoma cells; assay: Apoptosis in ascites Ehrlich carcinoma cells of treated mice (cytofluorimetric analysis); format: in vivo
[4] = system: A/Swine/1976/31 (H1N1) influenza virus; format: in vivo, mice; conditions: Tamiflu 20 mg/kg; for Infectious virus titer (log10EID50/20 mg tissue): lung tissue
[5] = system: HIV, HSV, and influenza virus; assay: Antiviral activity of the Example 3 compound; conditions: against HIV
From the text: The antiviral activity of the compound was studied against HIV, HSV, and influenza virus; its antitumor activity was also studied. The compound has high antitumor and antiviral activities against all of the aforementioned viruses. Preferred example embodiments of the invention are given below.

[6] = Antitumor activity of the Example 3 compound
[7] = Solubility of the isolated product
[8] = ascites cells having large sizes and granularity (tumor cells)
[9] = ascites cells of moderate size and granularity

## N.N.[Cl][Pt][Cl] [Cisplatin, reference compound]
[1]; day 1 post tumor transplantation
  Animal body weight: 19.1 ± 5 g
[1]; day 3 post tumor transplantation
  Animal body weight: 19.3 ± 2.7 g
[1]; day 5 post tumor transplantation
  Animal body weight: 19.4 ± 2.5 g
[1]; day 8 post tumor transplantation
  Animal body weight: 19.8 ± 2.2 g
[1]; day 10 post tumor transplantation
  Animal body weight: 20.7 ± 2.4 g
[1]; day 13 post tumor transplantation
  Animal body weight: 21.4 ± 1.5 g
[1]; day 15 post tumor transplantation
  Animal body weight: 21.8 ± 1.6 g
[2]; day 8 post transplantation
  Tumor size (mm^3): 56.5 mm^3
[2]; day 13 post transplantation
  Tumor size (mm^3): 249.2 mm^3
[2]; day 17 post transplantation
  Tumor size (mm^3): 464.3 mm^3
[2]; day 21 post transplantation
  Tumor size (mm^3): 1071.9 mm^3
[2]; day 24 post transplantation
  Tumor size (mm^3): 1743.3 mm^3
[2]; day 28 post transplantation
  Tumor size (mm^3): 1269.4 mm^3
[3]; [8]
  AnV^+ 7AAD^+ (late apoptosis): 72.8 ± 10.9%
  AnV^+ 7AAD^− (early apoptosis): 0.3 ± 0.3%
  AnV^−7AAD^+ (necrosis): 26.6% and 26.6 ± 11.1%
  AnV^−7AAD^− (living cells): 0.4 ± 0.2%
[3]; [9]
  Percent amount of cells with the phenotype AnV^+ 7AAD^+ (late apoptosis): 3.5 ± 2.4%
  Percent amount of cells with the phenotype AnV^+ 7AAD^− early apoptosis: 41.1 ± 11.3%
  Percent amount of cells with the phenotype AnV^−7AAD^+ (necrosis): 0.1 ± 0.2%
  Percent amount of cells with the phenotype AnV^−7AAD^− (living cells): 55.2 ± 11.0%

## CCOC(=O)C1=C[C@@H](OC(CC)CC)[C@H](NC(C)=O)[C@@H](N)C1.O=P(O)(O)O [Tamiflu, ethyl(3R,4R,5S)-4-acetamido-5-amino-3-(1-ethylpropoxy)-1-cyclohexene-1-carboxylate phosphate, reference compound]
[4]; Summary dose, n=26
  Average lifetime (LD): 12.2 days
  Increase in LD: 3.6 days
  Index of protection: 62.8
  Mortality rate, %: 26.9%
  Number of survivors: 19
[4]; the lower of the virus doses used, day 15
  Size of chronic post-influenza pneumonia sites (% of the total surface area of the lungs): 20 ± 5%
[4]; virus 1 LD50, n=13
  Average lifetime (LD): 13.5 days
  Increase in LD: 2.9 days
  Index of protection: 71.2
  Mortality rate, %: 15.4%
  Number of survivors: 11
[4]; virus 10 LD50, n=13
  Average lifetime (LD): 11.0 days
  Increase in LD: 4.4 days
  Index of protection: 58.6
  Mortality rate, %: 38.5%
  Number of survivors: 8
[4]; virus dose 1 LD50
  Infectious virus titer (log10EID50/20 mg tissue): 3.1 ± 0.1 log10EID50/20 mg tissue
[4]; virus dose 5 LD50
  Infectious virus titer (log10EID50/20 mg tissue): 3.8 ± 0.3 log10EID50/20 mg tissue

## N-fullerene tris(8-aminooctanoic acid hydrate) [Example 3]
[5]
  antiviral activity: high
[6]
  antitumor activity: high

## N-fullerene tris-ω-aminoenanthic acid) hydrate [Example 2]
[7]
  solubility in CH3CN:H2O (1:10): soluble
  solubility in DMF-H2O (1:100): soluble
  solubility in water: soluble
